Like-named read-outs stand apart in the source and are kept apart here.
Target: NR2B-subtype NMDA receptors (Rattus norvegicus (Rat), UniProt P35439+Q00960)
Test: Radioligand binding assay (3H Ro 25-6981 competition, rat forebrain membranes)
Details: 3H Ro 25-6981 (4 nM)
Method: Radioligand Binding Assay. Binding experiments to determine binding to NR2B-subtype NMDA receptors were performed on forebrains of 8-10 weeks old male Sprague Dawley rats (Harlan, Netherlands) using ^3H Ro 25-6981 (Mutel V; Buchy D; Klingelschmidt A; Messer J; Bleuel Z; Kemp J A; Richards J G. Journal of Neurochemistry, 1998, 70(5):2147-2155. Rats were decapitated without anesthesia using a Guillotine (approved by animal ethics committee) and the harvested brains were snap-frozen and stored at −80° C. for 3-6 months for membrane preparation.
For membrane preparation, rat forebrains were thawed on ice for 20 minutes in homogenization buffer composed of 50 mM KH2PO4 (pH adjusted to 7.4 with KOH), 1 mM EDTA, 0.005% Triton X 100 and protease inhibitor cocktail (Sigma Aldrich). Thawed brains were homogenized using a Dounce homogenizer and centrifuged at 48000×g for 20 min. The pellet was resuspended in cold buffer and homogenized again using a Dounce homogenizer. Subsequently, the homogenate was aliquoted, snap-frozen and stored at −80° C. for not more than 3-4 months.
To perform the competition binding assay, thawed membrane homogenate was added to each well of a 96-well plate (20 μg/well). The experimental compounds were serially diluted in 100% DMSO and added to each row of the assay plate to achieve desired compound concentrations, keeping the DMSO concentration in the assay plate at 1.33% of the final reaction volume. Next, ^3H Ro 25-6981 (4 nM) was added to the assay plate. After incubation for 1 hr at room temperature, the membrane bound radioligand was harvested on to GF/B filter plates (treated with 0.5% PEI for 1 hr at room temperature). The filter plates were dried at 50° C. for 20 mins, incubated with microscint 20 for 10 minutes and finally, the counts were read on TopCount (Perkin Elmer).

Chain of NR2B-subtype NMDA receptors (Q00960 27-1482, other chains not shown): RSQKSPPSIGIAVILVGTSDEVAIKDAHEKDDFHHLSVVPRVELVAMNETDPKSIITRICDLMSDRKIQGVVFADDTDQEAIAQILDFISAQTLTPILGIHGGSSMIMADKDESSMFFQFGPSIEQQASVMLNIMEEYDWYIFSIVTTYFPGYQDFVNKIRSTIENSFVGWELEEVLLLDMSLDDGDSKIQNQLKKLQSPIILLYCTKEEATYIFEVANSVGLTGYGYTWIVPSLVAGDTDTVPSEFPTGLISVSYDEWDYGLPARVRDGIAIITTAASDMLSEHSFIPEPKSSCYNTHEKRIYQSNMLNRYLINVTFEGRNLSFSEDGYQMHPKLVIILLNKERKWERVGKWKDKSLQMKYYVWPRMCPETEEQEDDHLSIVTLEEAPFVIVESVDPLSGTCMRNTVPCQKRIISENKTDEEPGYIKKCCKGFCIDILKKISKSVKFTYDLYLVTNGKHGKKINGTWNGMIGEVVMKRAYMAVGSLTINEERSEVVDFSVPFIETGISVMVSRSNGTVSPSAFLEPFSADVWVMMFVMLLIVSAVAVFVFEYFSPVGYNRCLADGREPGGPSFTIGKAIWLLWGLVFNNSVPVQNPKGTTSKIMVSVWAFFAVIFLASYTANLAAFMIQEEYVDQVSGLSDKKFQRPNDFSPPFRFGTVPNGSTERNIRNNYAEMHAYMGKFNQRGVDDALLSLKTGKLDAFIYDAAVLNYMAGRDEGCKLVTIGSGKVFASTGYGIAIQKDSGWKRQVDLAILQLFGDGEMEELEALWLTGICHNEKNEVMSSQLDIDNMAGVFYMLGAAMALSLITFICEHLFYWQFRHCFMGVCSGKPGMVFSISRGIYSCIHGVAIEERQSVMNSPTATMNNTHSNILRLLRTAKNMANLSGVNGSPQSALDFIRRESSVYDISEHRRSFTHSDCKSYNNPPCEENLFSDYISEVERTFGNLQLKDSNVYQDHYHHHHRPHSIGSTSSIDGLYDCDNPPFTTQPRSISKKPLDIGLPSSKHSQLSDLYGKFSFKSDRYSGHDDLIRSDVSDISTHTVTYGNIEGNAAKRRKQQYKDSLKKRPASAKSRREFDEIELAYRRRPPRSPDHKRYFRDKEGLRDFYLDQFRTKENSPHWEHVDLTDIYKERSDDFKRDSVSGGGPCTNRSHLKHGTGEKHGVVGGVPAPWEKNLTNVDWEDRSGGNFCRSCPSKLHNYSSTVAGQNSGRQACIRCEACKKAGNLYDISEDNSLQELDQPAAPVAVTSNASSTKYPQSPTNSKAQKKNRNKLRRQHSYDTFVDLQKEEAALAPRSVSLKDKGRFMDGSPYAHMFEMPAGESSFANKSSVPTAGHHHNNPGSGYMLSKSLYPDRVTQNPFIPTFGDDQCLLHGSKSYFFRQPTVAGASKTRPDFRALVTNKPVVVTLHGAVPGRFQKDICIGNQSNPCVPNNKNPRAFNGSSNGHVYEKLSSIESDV

`O=C1C(N2CC[C@@H](c3ccc(O)cc3)[C@H](F)C2)CCON1Cc1ccc(Cl)cc1` (single isomer, unassigned) [Example 12, P-1] gave a Ki (listed as 12, P-1, read-out: NR2B Binding Ki) of 0.0039 µM.

`Cc1ccc(CN2OCCC(N3CC[C@@H](c4ccc(O)cc4)[C@H](F)C3)C2=O)cc1` (single isomer, unassigned) [Example 5, P-1] gave a Ki (listed as 5, P-1, read-out: NR2B Binding Ki) of 0.144 µM.

Compound `Cc1ccc(CN2OCC(N3CCN(c4ccc(O)cn4)CC3)C2=O)cc1` (single isomer, unassigned) [Example 10, P-2, 4-(4-(5-hydroxypyridin-2-yl)piperazin-1-yl)-2-(4-methylbenzyl)isoxazolidin-3-one] has a Ki (listed as 10, P-2, read-out: NR2B Binding Ki) of 0.0107 µM.

`Cc1ccc(CN2OCCC(N3CCC(c4ccc(O)cn4)CC3)C2=O)cc1` (single isomer, unassigned) [Example 6, P-2, 4-(4-(5-hydroxypyridin-2-yl)piperidin-1-yl)-2-(4-methylbenzyl)-1,2-oxazinan-3-one] showed a Ki (listed as 6, P-2, read-out: NR2B Binding Ki) of 0.00816 µM.

`O=C1C(N2CCC(c3ccc(O)c(F)c3)C(F)C2)CCON1Cc1ccc(Cl)cc1` (single isomer, unassigned) [Example 14, P-2, 2-(4-chlorobenzyl)-4-(3-fluoro-4-(3-fluoro-4-hydroxyphenyl)piperidin-1-yl)-1,2-oxazinan-3-one] gave a Ki (listed as 14, P-2, read-out: NR2B Binding Ki) of 0.0028 µM.

Work on `Cc1ccc(CN2OCCC(N3CC[C@@H](c4ccc(O)cc4)[C@H](F)C3)C2=O)cc1` (single isomer, unassigned) [Example 5, P-2] yielded a Ki (listed as 5, P-2, read-out: NR2B Binding Ki) of 0.00437 µM.

Compound `Cc1ccc(CN2OCCC(N3CCN(c4ccc(O)cn4)CC3)C2=O)cc1` (single isomer, unassigned) [Example 8, P-2, 4-(4-(5-hydroxypyridin-2-yl)piperazin-1-yl)-2-(4-methylbenzyl)-1,2-oxazinan-3-one] has a Ki (listed as 8, P-2, read-out: NR2B Binding Ki) of 0.0187 µM.

`Cc1ccc(CN2OCCC(N3CCC(c4ccc(O)cn4)CC3)C2=O)cc1` (single isomer, unassigned) [Example 6, P-1, 4-(4-(5-hydroxypyridin-2-yl)piperidin-1-yl)-2-(4-methylbenzyl)-1,2-oxazinan-3-one] was tested, and the Ki (listed as 6, P-1, read-out: NR2B Binding Ki) was 0.00653 µM.

Compound `Cc1ccc(CN2OCC(N3CCC(c4ccc(O)cn4)CC3)C2=O)cc1` (single isomer, unassigned) [Example 9, P-2, 4-(4-(5-hydroxypyridin-2-yl)piperidin-1-yl)-2-(4-methylbenzyl)isoxazolidin-3-one] has a Ki (listed as 9, P-2, read-out: NR2B Binding Ki) of 0.0121 µM.

Compound `O=C1C(N2CC[C@@H](c3ccc(O)cc3)[C@H](F)C2)CCON1Cc1ccc(F)cc1` (single isomer, unassigned) [Example 15, P-1] has a Ki (listed as 15, P-1, read-out: NR2B Binding Ki) of 0.393 µM.

For `Cc1ccc(CN2OCCC(N3CCC(c4ccc(O)c(F)c4)C(F)C3)C2=O)cc1` (single isomer, unassigned) [Example 11, P-2, 4-(3-fluoro-4-(3-fluoro-4-hydroxyphenyl)piperidin-1-yl)-2-(4-methylbenzyl)-1,2-oxazinan-3-one], the Ki (listed as 11, P-2, read-out: NR2B Binding Ki) was 0.0393 µM.

In the case of `O=C1C(N2CCC(c3ccc(O)cc3)CC2)CON1Cc1ccc(F)cc1` (single isomer, unassigned) [Example 1, P-2, 2-(4-fluorobenzyl)-4-(4-(4-hydroxyphenyl)piperidin-1-yl)isoxazolidin-3-one], the Ki (listed as 1, P-2, read-out: NR2B Binding Ki) is reported as 0.00408 µM.

With `Cc1ccc(CN2OCCC(N3CC[C@H](c4ccc(O)cc4)[C@@H](F)C3)C2=O)cc1` (single isomer, unassigned) [Example 7, P-1] the Ki (listed as 7, P-1, read-out: NR2B Binding Ki) was 0.125 µM.

In the case of `O=C1C(N2CCC(c3ccc(O)c(F)c3)C(F)C2)CCON1Cc1ccc(F)cc1` (single isomer, unassigned) [Example 13, P-1, 4-(3-fluoro-4-(3-fluoro-4-hydroxyphenyl)piperidin-1-yl)-2-(4-fluorobenzyl)-1,2-oxazinan-3-one], the Ki (listed as 13, P-1, read-out: NR2B Binding Ki) is reported as 0.367 µM.

Work on `O=C1C(N2CC[C@@H](c3ccc(O)cc3)[C@H](F)C2)CCON1Cc1ccc(Cl)cc1` (single isomer, unassigned) [Example 12, P-2] yielded a Ki (listed as 12, P-2, read-out: NR2B Binding Ki) of 0.15 µM.

`Cc1ccc(CN2OCCC(N3CCC(c4ccc(O)c(F)c4)C(F)C3)C2=O)cc1` (single isomer, unassigned) [Example 11, P-1, 4-(3-fluoro-4-(3-fluoro-4-hydroxyphenyl)piperidin-1-yl)-2-(4-methylbenzyl)-1,2-oxazinan-3-one] gave a Ki (listed as 11, P-1, read-out: NR2B Binding Ki) of 0.00306 µM.

`Cc1ccc(CN2OCC(N3CCC(c4ccc(O)cc4)CC3)C2=O)cc1` (single isomer, unassigned) [Example 2, P-1, 4-(4-(4-hydroxyphenyl)piperidin-1-yl)-2-(4-methylbenzyl)isoxazolidin-3-one] gave a Ki (listed as 2, P-1, read-out: NR2B Binding Ki) of 0.112 µM.

Work on `Cc1ccc(CN2OCC(N3CCC(c4ccc(O)cn4)CC3)C2=O)cc1` (single isomer, unassigned) [Example 9, P-1, 4-(4-(5-hydroxypyridin-2-yl)piperidin-1-yl)-2-(4-methylbenzyl)isoxazolidin-3-one] yielded a Ki (listed as 9, P-1, read-out: NR2B Binding Ki) of 0.139 µM.

In the case of `Cc1ccc(CN2OCCC(N3CC[C@H](c4ccc(O)cc4)[C@@H](F)C3)C2=O)cc1` (single isomer, unassigned) [Example 7, P-2], the Ki (listed as 7, P-2, read-out: NR2B Binding Ki) is reported as 0.00498 µM.

In the case of `O=C1C(N2CC[C@@H](c3ccc(O)cc3)[C@H](F)C2)CCON1Cc1ccc(F)cc1` (single isomer, unassigned) [Example 15, P-2], the Ki (listed as 15, P-2, read-out: NR2B Binding Ki) is reported as 0.0125 µM.

In the case of `O=C1C(N2CCC(c3ccc(O)cc3)CC2)CON1Cc1ccc(F)cc1` (single isomer, unassigned) [Example 1, P-1, 2-(4-fluorobenzyl)-4-(4-(4-hydroxyphenyl)piperidin-1-yl)isoxazolidin-3-one], the Ki (P-1, read-out: NR2B Binding Ki) is reported as 0.305 µM.

Work on `O=C1C(N2CCC(c3ccc(O)c(F)c3)C(F)C2)CCON1Cc1ccc(Cl)cc1` (single isomer, unassigned) [Example 14, P-1, 2-(4-chlorobenzyl)-4-(3-fluoro-4-(3-fluoro-4-hydroxyphenyl)piperidin-1-yl)-1,2-oxazinan-3-one] yielded a Ki (listed as 14, P-1, read-out: NR2B Binding Ki) of 0.0987 µM.

`O=C1C(N2CCC(c3ccc(O)c(F)c3)C(F)C2)CCON1Cc1ccc(F)cc1` (single isomer, unassigned) [Example 13, P-2, 4-(3-fluoro-4-(3-fluoro-4-hydroxyphenyl)piperidin-1-yl)-2-(4-fluorobenzyl)-1,2-oxazinan-3-one] showed a Ki (listed as 13, P-2, read-out: NR2B Binding Ki) of 0.00403 µM.

For `Cc1ccc(CN2OCCC(N3CCN(c4ccc(O)cn4)CC3)C2=O)cc1` (single isomer, unassigned) [Example 8, P-1, 4-(4-(5-hydroxypyridin-2-yl)piperazin-1-yl)-2-(4-methylbenzyl)-1,2-oxazinan-3-one], the Ki (listed as 8, P-1, read-out: NR2B Binding Ki) was 0.0578 µM.

Source: patent publication US10501451B2, “Selective NR2B antagonists” (BRISTOL-MYERS SQUIBB COMPANY, priority 2015, dated 2019)
